Measurements as given in ChEMBL document CHEMBL1147629, “Beyond U0126. Dianion chemistry leading to the rapid synthesis of a series of potent MEK inhibitors” (Bioorg Med Chem Lett, 2004).

Legend:
[1] = target: T1, Dual specificity mitogen-activated protein kinase kinase 1 (Homo sapiens, UniProt Q02750); experiment: Inhibitory potency against mitogen activated protein kinase kinase 1
Target sequence in this assay (Q02750 whole entry): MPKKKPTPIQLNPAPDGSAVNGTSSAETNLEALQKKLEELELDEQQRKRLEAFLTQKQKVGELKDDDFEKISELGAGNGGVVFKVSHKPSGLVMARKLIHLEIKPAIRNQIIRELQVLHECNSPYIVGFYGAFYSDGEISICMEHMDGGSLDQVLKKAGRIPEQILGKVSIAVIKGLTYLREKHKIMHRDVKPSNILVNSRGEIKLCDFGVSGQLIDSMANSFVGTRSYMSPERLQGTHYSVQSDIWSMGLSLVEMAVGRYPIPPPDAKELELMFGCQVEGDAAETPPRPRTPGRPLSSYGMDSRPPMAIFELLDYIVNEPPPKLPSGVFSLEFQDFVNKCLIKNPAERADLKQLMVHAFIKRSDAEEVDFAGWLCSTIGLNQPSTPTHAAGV

[2] = test system: COS-7; experiment: Inhibitory concentration against AP-1 transcription in COS-7 cells; details: Chlorocebus aethiops
[3] = test system: COS-7
[4] = target: T1, Dual specificity mitogen-activated protein kinase kinase 1; experiment: Inhibitory potency against mitogen activated protein kinase kinase 1 at 10 uM
Target sequence in this assay (Q02750 whole entry, looked up): as the sequence (Q02750 whole entry) above

[5] = target: T2, Dual specificity mitogen-activated protein kinase kinase 3 (Homo sapiens, UniProt P46734); experiment: Inhibitory potency against MAP kinase kinase 3 (MKK3); type: functional
T2 sequence (P46734 whole entry): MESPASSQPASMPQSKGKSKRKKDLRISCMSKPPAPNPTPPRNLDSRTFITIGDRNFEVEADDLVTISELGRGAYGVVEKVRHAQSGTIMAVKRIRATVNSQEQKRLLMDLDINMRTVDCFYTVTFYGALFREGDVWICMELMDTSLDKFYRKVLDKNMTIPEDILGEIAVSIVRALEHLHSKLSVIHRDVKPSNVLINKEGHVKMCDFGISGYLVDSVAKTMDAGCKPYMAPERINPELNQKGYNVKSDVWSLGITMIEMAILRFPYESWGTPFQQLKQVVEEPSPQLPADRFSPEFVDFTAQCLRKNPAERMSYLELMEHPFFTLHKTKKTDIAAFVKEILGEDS

[6] = Inhibitory potency against Mitogen activated protein kinase kinase 4; type: functional
[7] = test system: Mus musculus; experiment: In vivo effective dose against TPA-induced ear edema in mouse upon intraperitoneal administration; type: functional; details: ip

| SMILES | IC50 [1] | IC50 [2] | other results |
| --- | --- | --- | --- |
| N#C/C(=C(/N)Sc1ccccc1N)c1cccc(C(O)c2cccc([N+](=O)[O-])c2)c1 (stereo not drawn) | 17 nM | 1.6 µM |  |
| N#C/C(=C(/N)Sc1ccccc1N)c1cccc(C(O)c2ccc(C#N)cc2)c1 (stereo not drawn) | 7 nM | 0.32 µM |  |
| N#C/C(=C(/N)Sc1ccccc1N)c1cccc(C(O)c2c(F)c(F)c(F)c(F)c2F)c1 (stereo not drawn) | 44 nM |  |  |
| N#CC(=C(/N)Sc1ccccc1N)/C(C#N)=C(\N)Sc1ccccc1N |  | 1 µM |  |
| N#C/C(=C(/N)Sc1ccccc1N)c1cccc(Oc2ccccc2)c1 |  | 3.03 µM |  |
| N#C/C(=C(/N)Sc1ccc(N)cc1)c1cccc(Cc2ccccc2)c1 |  | 38.8 µM |  |
| N#C/C(=C(/N)Sc1ccccc1N)c1cccc(C(O)c2ccco2)c1 (stereo not drawn) |  | 12.2 µM |  |
| N#C/C(=C(/N)Sc1ccccc1N)c1cccc(C(O)c2ccoc2)c1 (stereo not drawn) |  | 7.02 µM |  |
| N#C/C(=C(/N)Sc1ccccc1N)c1cccc(C(O)Cc2ccccc2)c1 (stereo not drawn) |  | 19.9 µM |  |
| Cc1ccccc1C(O)c1cccc(/C(C#N)=C(\N)Sc2ccc(N)cc2)c1 (stereo not drawn) |  | 3.67 µM |  |
| N#CC(=C(N)Sc1ccccc1N)c1ccccc1 | 140 nM |  |  |
| CC(O)(c1ccccc1)c1cccc(/C(C#N)=C(\N)Sc2ccccc2N)c1 (stereo not drawn) |  |  | IC50 [3]: Not Active |
| CC(O)c1cccc(/C(C#N)=C(\N)Sc2ccccc2N)c1 (stereo not drawn) | 183 nM | 66.7 µM |  |
| CN(C(=O)c1cccc(/C(C#N)=C(\N)Sc2ccccc2N)c1)c1ccccc1 | 4010 nM |  |  |
| N#C/C(=C(/N)Sc1ccccc1N)c1cccc(C(O)c2ccsc2)c1 (stereo not drawn) | 17 nM | 2.4 µM |  |
| N#C/C(=C(/N)Sc1ccccc1N)c1cccc(C(O)c2cccc(C#N)c2)c1 (stereo not drawn) | 13 nM | 1.08 µM |  |
| N#C/C(=C(/N)Sc1ccccc1N)c1cccc(C(O)c2ccc(-c3nnn(C(c4ccccc4)(c4ccccc4)c4ccccc4)n3)cc2)c1 (stereo not drawn) | 255 nM | 6.88 µM |  |
| N#C/C(=C(/N)Sc1ccccc1O)c1cccc(C(O)c2cccc([N+](=O)[O-])c2)c1 (stereo not drawn) | 25 nM | 3.22 µM |  |
| N#C/C(=C(/N)Sc1ccccc1N)c1cccc(C(O)c2ccc3ccccc3c2)c1 (stereo not drawn) | 76 nM | 3.25 µM |  |
| N#C/C(=C(/N)Sc1ccccc1N)c1cccc(C(=O)c2ccccc2)c1 |  | 6.17 µM |  |
| N#C/C(=C(/N)Sc1ccccc1N)c1cccc(C(O)c2cccc(C(F)(F)F)c2)c1 (stereo not drawn) | 53 nM | 5.7 µM |  |
| CC(C)(O)c1cccc(/C(C#N)=C(\N)Sc2ccccc2N)c1 | 340 nM | 40 µM |  |
| COc1ccccc1S/C(N)=C(\C#N)c1cccc(C(O)c2ccc(C#N)cc2)c1 (stereo not drawn) |  |  | IC50 [3]: Not Active |
| Cc1cccc(C(O)c2cccc(/C(C#N)=C(\N)Sc3ccccc3N)c2)c1 (stereo not drawn) |  | 2.4 µM |  |
| N#C/C(=C(/N)Sc1ccccc1N)c1cccc(C(O)c2cccs2)c1 (stereo not drawn) | 17 nM | 2.22 µM |  |

| SMILES | IC50 [1] | IC50 [2] | other results |
| --- | --- | --- | --- |
| N#C/C(=C(/N)Sc1ccccc1N)c1cccc(C(O)(c2ccccc2)c2ccccc2)c1 | 2220 nM |  | IC50 [3]: Not Active |
| N#C/C(=C(/N)Sc1ccccc1N)c1cccc(C(O)C2CCCCC2)c1 (stereo not drawn) | 56 nM | 4.51 µM |  |
| Cc1ccc(C(O)c2cccc(/C(C#N)=C(\N)Sc3ccccc3N)c2)cc1 (stereo not drawn) |  | 3 µM |  |
| COC(=O)c1ccc(C(O)c2cccc(/C(C#N)=C(\N)Sc3ccccc3N)c2)cc1 (stereo not drawn) | 14 nM | 0.29 µM |  |
| CN(C(=O)c1cccc(/C(C#N)=C(\N)Sc2ccc(N)cc2)c1)c1ccccc1 |  |  | inhibition [4]: 45% |
| Cc1ccc(C(O)c2cccc(/C(C#N)=C(\N)Sc3ccc(N)cc3)c2)cc1 (stereo not drawn) |  |  | IC50 [3]: Not Active |
| N#C/C(=C(/N)Sc1ccccc1N)c1ccc(C(=O)c2ccccc2)cc1 |  | 3.13 µM |  |
| N#C/C(=C(/N)Sc1ccccc1N)c1cccc(C(O)c2cccnc2)c1 (stereo not drawn) |  | 2.72 µM |  |
| N#C/C(=C(/N)Sc1ccccc1N)c1cccc(Cc2ccccc2)c1 |  | 3.2 µM |  |
| C[n+]1ccc(C(O)c2cccc(/C(C#N)=C(\N)Sc3ccccc3N)c2)cc1 (stereo not drawn) | 330 nM | 50 µM |  |
| N#C/C(=C(/N)Sc1ccccc1N)c1cccc(C(O)c2ccc3c(c2)OCCO3)c1 (stereo not drawn) | 25 nM | 2.1 µM |  |
| N#C/C(=C(/N)Sc1ccc(N)cc1)c1cccc(C(O)c2ccccc2)c1 (stereo not drawn) |  | 10.7 µM |  |
| Cc1cccc(C(O)c2cccc(/C(C#N)=C(\N)Sc3ccc(N)cc3)c2)c1 (stereo not drawn) |  |  | IC50 [3]: Not Active |
| N#C/C(=C(/N)Sc1ccccc1N)c1cccc(C(O)c2ccncc2)c1 (stereo not drawn) |  | 1.4 µM | IC50 [5]: > 1000 nM; IC50 [6]: > 1000 nM; ED50 [7]: 5 mg/kg |
| N#C/C(=C(/N)Sc1ccccc1N)c1cccc(C(O)c2ccccn2)c1 (stereo not drawn) |  | 11.8 µM |  |
| N#C/C(=C(/N)Sc1ccccc1O)c1cccc(C(O)c2ccc(C#N)cc2)c1 (stereo not drawn) |  | 0.64 µM |  |
| N#C/C(=C(/N)Sc1ccccc1N)c1cccc(C(O)c2cccc3ccccc23)c1 (stereo not drawn) | 47 nM | 2.59 µM |  |
| N#C/C(=C(/N)Sc1ccccc1N)c1cccc(C(O)c2ccccc2)c1 (stereo not drawn) |  | 2.07 µM |  |
| Cc1ccccc1C(O)c1cccc(/C(C#N)=C(\N)Sc2ccccc2N)c1 (stereo not drawn) |  | 2.69 µM |  |
| N#C/C(=C(/N)Sc1ccccc1N)c1cccc(C(O)c2ccc(C(F)(F)F)cc2)c1 (stereo not drawn) | 57 nM | 3.97 µM |  |
| N#C/C(=C(/N)Sc1ccccc1N)c1cccc(C(O)c2ccc([N+](=O)[O-])cc2)c1 (stereo not drawn) | 8 nM | 0.3 µM |  |
| N#C/C(=C(/N)Sc1ccccc1N)c1cccc(C(O)c2ccc([N+](=O)[O-])cc2[N+](=O)[O-])c1 (stereo not drawn) | 8 nM | 0.3 µM |  |
| N#C/C(=C(/N)Sc1ccccc1)c1cccc(C(O)c2ccc(C#N)cc2)c1 (stereo not drawn) | 53 nM | 1.2 µM |  |
| N#C/C(=C(/N)Sc1ccc(N)cc1)c1cccc(C(O)c2ccc(C#N)cc2)c1 (stereo not drawn) | 53 nM |  |  |
